{"source": "patent US12409172B2", "about": "“Dosage regimen” (UNION therapeutics A/S, priority 2023, dated 2025)", "key": {"[1]": {"system": "adults with moderate to severe atopic dermatitis", "experiment": "Phase 2b study in atopic dermatitis (Example 8): treatment emergent adverse events", "type": "in vivo, human", "from_the_text": "The exploratory objectives are to: • Evaluate pharmacokinetic (PK) and pharmacodynamic parameters relevant to AD • Evaluate the effect of orismilast on the pulmonary status and course of the disease in patients with asthma Primary Endpoint • Percentage change in Eczema Area and Severity Index (EASI) score from Baseline at Week 16. […]"}, "[2]": {"system": "TARC and other inflammatory markers in atopic dermatitis skin lesions", "experiment": "Skin tape strip biomarkers (OLINK FLEX panel) in the phase 2b atopic dermatitis study (Example 11)", "type": "in vivo, human", "conditions": "all treatment arms (20, 30, 40 mg BID)", "from_the_text": "Stratum corneum skin samples were collected at the designated time points using the tape stripping method to evaluate biomarker expression levels. Tape stripping is a minimally invasive, nonscarring approach using serial adhesive films to capture the stratum corneum and the upper part of the granular layer.\nAt Baseline, before administration of study drug, 1 lesional and 1 non-lesional area were identified, and 20 consecutive skin samples were collected from each area. At Week 16, the same procedure was repeated only from the same lesional areas sampled at Baseline.\nSkin tape strip samples were taken from lesional and non-lesional skin at baseline and lesional skin at week 16 of patients participating in the phase 2b, double-blinded, placebo-controlled, dose-finding study (20 mg, 30 mg and 40 mg orismilast modified release tablets BID) in patients with moderate-to-severe atopic dermatitis (NCT05469464) described in Example 8. […] The primary objective of the biomarker study was to evaluate the effect of orismilast on a broad spectrum of inflammatory markers in atopic dermatitis skin lesions using tape strips as a non-invasive sampling technology combined with the Olink® technology (OLINK® FLEX panel) using analogous methods to those described in Example 10.\nA linear mixed effect model was used on all patients to estimate Ismeans with standard error and adjusted p value."}, "[3]": {"system": "TNF-α secretion from human whole blood", "experiment": "LPS and SEB-induced TNF-α secretion from human whole blood", "type": "cell-based", "conditions": "average; both LPS and SEB-induced TNF-α secretion from human whole blood"}}, "data": [{"smiles": "O=C(Cc1c(Cl)c[n+]([O-])cc1Cl)c1ccc(OC(F)F)c2c1OC1(CCS(=O)(=O)CC1)O2", "note": "[orismilast, 2-(3,5-dichloro-1-oxidopyridin-1-ium-4-yl)-1-[7-(difluoromethoxy)-1′,1′-dioxospiro[1,3-benzodioxole-2,4′-thiane]-4-yl]ethanone]", "values": [{"measurement": "patients experiencing any Treatment Emergent Adverse Event (TEAE) through Week 16", "setting": "[1]; 20 mg BID", "result": 76, "unit": "%"}, {"measurement": "patients experiencing any Treatment Emergent Adverse Event (TEAE) through Week 16", "setting": "[1]; 30 mg BID", "result": 79, "unit": "%"}, {"measurement": "patients experiencing any Treatment Emergent Adverse Event (TEAE) through Week 16", "setting": "[1]; 40 mg BID", "result": 86, "unit": "%"}, {"measurement": "TARC in lesional skin at week 16 of treatment", "setting": "[2]", "result": "significant reduction"}, {"measurement": "potency relative to apremilast on a molar basis", "setting": "[3]", "result": 23, "unit": "times"}]}]}
